According to patent US8445501B2, “Substituted 7-carboxamido-pyrrolo[3,2-d]pyrimidines” (Takeda GmbH, priority 2008, dated 2013):

Biological target: T1, human PDE5 (Homo sapiens, UniProt O76074)
T1 construct: from tissue; host or cells: platelets from fresh blood of human donors (lysate, 10,000 g supernatant)
Assay: Inhibition of the type 5 phosphodiesterase (PDE5) activity, modified SPA test with platelet lysate
Type: biochemical
Details: PDE5 from human platelet lysate, 0.5 μM cGMP
Method: Method for Measuring Inhibition of the Type 5 Phosphodiesterase (PDE5) Activity:
As a source for human PDE5, platelets are used. For that purpose, 150 ml fresh blood from human donors anticoagulated with citrate [final concentration 0.3% (w/v)] is centrifuged at 200 g for 10 min to obtain the so-called platelet-rich-plasma (PRP) as a supernatant. 1/10 volume of ACD solution (85 mM Na3-citrate, 111 mM D-glucose, 71 mM citric acid, pH 4.4) is added to 9/10 volume of PRP. After centrifugation (1,400 g, 10 min) the cell pellet is resuspended in 3 ml homogenization buffer (NaCl 140 mM, KCl 3.8 mM, EGTA (ethylene glycol tetraacetic acid) 1 mM, MgCl2 1 mM, Tris-HCl 20 mM, beta-mercaptoethanol 1 mM, pH 8.2) plus protease-inhibitor mix giving rise to the final concentrations of 0.5 mM Pefablock (Roche), 10 μM Leupeptin, 5 μM Trypsininhibitor, 2 mM Benzamidin and 10 μM Pepstatin A. The suspension is sonified and thereafter centrifuged for 15 min at 10,000 g. The resulting supernatant (platelet lysate) is used for enzymatic testings.
PDE5A1 activity is inhibited by the compounds of the invention in a modified SPA (scintillation proximity assay) test, supplied by Amersham Biosciences (see procedural instructions “phosphodiesterase [3H]cAMP SPA enzyme assay, code TRKQ 7090”), carried out in 96-well microtitre plates (MTP's). The test volume is 100 μl and contains 20 mM Tris buffer (pH 7.4), 0.1 mg of BSA (bovine serum albumin)/ml, 5 mM Mg^2+, 1 μM motapizone, 10 nM PDE2 inhibitor 2-(3,4-dimethoxybenzyl)-7-[(1R,2R)-2-hydroxy-1-(2-phenylethyl)propyl]-5-methylimidazo[5,1-f][1,2,4]triazin-4(3H)-one, 0.5 μM cGMP (cyclic guanosine monophosphate) (including about 50,000 cpm of [3H]cGMP as a tracer), 1 μl of the respective compound dilution in dimethylsulfoxide (DMSO) and sufficient PDE5-containing platelet lysat (10,000×g supernatant, see above) to ensure that 10-20 wt % of the cGMP is converted under the said experimental conditions. […] After a preincubation of 5 min at 37° C., the reaction is started by adding the substrate (cGMP) and the assay is incubated for a further 15 min; after that, it is stopped by adding SPA beads (50 μl). In accordance with the manufacturer's instructions, the SPA beads had previously been resuspended in water, but are then diluted 1:3 (v/v) in water; the diluted solution also contains 3 mM […] (IBMX) to ensure a complete PDE activity stop. After the beads have been sedimented (>30 min), the MTP's are analyzed in commercially available luminescence detection de-vices. The corresponding IC50 values of the compounds for the inhibition of PDE activity are deter-mined from the concentration-effect curves by means of non-linear regression.

| IC50 [nM] | Molecule | -log IC50 (mol/l) |
| --- | --- | --- |
| 0.251 | C[C@H](O)C(=O)N1CCCC(CNC(=O)c2c[nH]c3c(-c4c(OCC5CC5)ccc5c4OCO5)ncnc23)C1 (stereo partly drawn) [Example 190, 4-(5-Cyclopropylmethoxy-benzo[1,3]dioxol-4-yl)-5H-pyrrolo[3,2-d]pyrimidine-7-carboxylic acid [1-((S)-2-hydroxy-propionyl)piperidin-3-ylmethyl]-amide] | – |
| 0.355 | COc1cc(-c2ncnc3c(C(=O)N[C@@H]4CCN(C(=O)[C@H](C)O)C4)c[nH]c23)c(OCC2CC2)cc1F [Example 232, 4-(2-Cyclopropylmethoxy-4-fluoro-5-methoxy-phenyl)-5H-pyrrolo[3,2-d]pyrimidine-7-carboxylic acid [(R)-1-((S)-2-hydroxy-propionyl)-pyrrolidin-3-yl]amide] | – |
| 93.3 | CC(=O)N1CCC(NC(=O)c2c[nH]c3c(-c4cc(F)c(O)cc4OCC4CC4)ncnc23)CC1 [Example 277, 4-(2-Cyclopropylmethoxy-5-fluoro-4-hydroxy-phenyl)-5H-pyrrolo[3,2-d]pyrimidine-7-carboxylic acid (1-acetyl-piperidin-4-yl)-amide] | – |
| 1.86 | O=C(N[C@H]1CCN(C(=O)CO)C1)c1c[nH]c2c(-c3c(OCC4CC4)ccc4c3OCO4)ncnc12 [Example 183, 4-(5-Cyclopropylmethoxy-benzo[1,3]dioxol-4-yl)-5H-pyrrolo[3,2-d]pyrimidine-7-carboxylic acid [(S)-1-(2-hydroxy-ethanoyl)-pyrrolidin-3-yl]amide] | – |
| 0.245 | C[C@H](O)C(=O)N[C@H]1CC[C@@H](NC(=O)c2c[nH]c3c(-c4c(OCC5CC5)ccc5c4OCO5)ncnc23)CC1 [Example 175] | – |
| 2.63 | O=C(CO)N[C@H]1CC[C@@H](NC(=O)c2c[nH]c3c(-c4ccc(F)cc4OCC4CC4)ncnc23)CC1 [Example 214, cis-4-(2-Cyclopropylmethoxy-4-fluoro-phenyl)-5H-pyrrolo[3,2-d]pyrimidine-7-carboxylic acid [4-(2-hydroxy-acetylamino)-cyclohexyl]-amide] | – |
| 2.51 | C[C@H](O)C(=O)N[C@H]1CC[C@H](NC(=O)c2c[nH]c3c(-c4ccc(F)cc4OCC4CC4)ncnc23)CC1 [Example 218, trans-4-(2-Cyclopropylmethoxy-4-fluoro-phenyl)-5H-pyrrolo[3,2-d]pyrimidine-7-carboxylic acid [4-((S)-2-hydroxy-propionylamino)-cyclohexyl]-amide] | – |
| 9.33 | COCCOc1cc(OC)ccc1-c1ncnc2c(C(=O)N[C@H]3CC[C@H](NC(=O)C4(O)CC4)CC3)c[nH]c12 [Example 257, trans-4-[4-Methoxy-2-(2-methoxy-ethoxy)-phenyl]-5H-pyrrolo[3,2-d]pyrimidine-7-carboxylic acid {-[(1-hydroxy-cyclopropanecarbonyl)-amino]-cyclohexyl}-amide] | – |
| 7.76 | COCCOc1ccc2c(c1-c1ncnc3c(C(=O)N[C@H]4CC[C@@H](NC(C)=O)CC4)c[nH]c13)OCO2 [Example 164, cis-4-[5-(2-Methoxy-ethoxy)-benzo[1,3]dioxol-4-yl]-5H-pyrrolo[3,2-d]pyrimidine-7-carboxylic acid (4-acetylamino-cyclohexyl)-amide] | – |
| 0.148 | CCCOc1ccc2c(c1-c1ncnc3c(C(=O)NC4CCN(C(=O)OCC)CC4)c[nH]c13)OCO2 [Example 140, 4-{[4-(5-Propoxy-benzo[1,3]dioxol-4-yl)-5H-pyrrolo[3,2-d]pyrimidine-7-carbonyl]-amino}-piperidine-1-carboxylic acid ethyl ester] | – |
| 2.51 | COc1cc(OCC2CC2)c(-c2ncnc3c(C(=O)N[C@H]4CCCN(C(=O)[C@H](C)O)C4)c[nH]c23)cc1F [Example 239, 4-(2-cyclopropylmethoxy-5-fluoro-4-methoxy-phenyl)-5H-pyrrolo[3,2-d]pyrimidine-7-carboxylic acid [(S)-1-((S)-2-hydroxy-propanoyl)piperidin-3-yl]-amide] | – |
| 7.41 | O=C(NC1CCN(C(=O)CO)CC1)c1c[nH]c2c(-c3cc(F)ccc3OCC3CC3)ncnc12 [Example 220, 4-(2-Cyclopropylmethoxy-5-fluoro-phenyl)-5H-pyrrolo[3,2-d]pyrimidine-7-carboxylic acid [1-(2-hydroxy-acetyl)piperidin-4-yl]-amide] | – |
| 2.24 | O=C(CO)N[C@H]1CC[C@H](NC(=O)c2c[nH]c3c(-c4ccc(F)cc4OCC4CC4)ncnc23)CC1 [Example 217, trans-4-(2-Cyclopropylmethoxy-4-fluoro-phenyl)-5H-pyrrolo[3,2-d]pyrimidine-7-carboxylic acid [4-(2-hydroxy-acetylamino)-cyclohexyl]-amide] | – |

Further lines, the molecule ahead of its results:

| Molecule | IC50 [nM] | -log IC50 (mol/l) |
| --- | --- | --- |
| COCC(=O)N1CC(NC(=O)c2c[nH]c3c(-c4c(OCC5CC5)ccc5c4OCO5)ncnc23)C1 [Example 41, 4-(5-Cyclopropylmethoxy-benzo[1,3]dioxol-4-yl)-5H-pyrrolo[3,2-d]pyrimidine-7-carboxylic acid [1-(2-methoxy-ethanoyl)-azetidin-3-yl]amide] | 0.891 | – |
| 4-(5-Cyclopropylmethoxy-benzo[1,3]dioxol-4-yl)-5H-pyrrolo[3,2-d]pyrimidine-7-carboxylic acid ((R)-1-propionyl-piperidin-3-yl)-amide [Example 47] | – | 9.64 |
| O=C(N[C@H]1CC[C@H](NC(=O)C2CC2)CC1)c1c[nH]c2c(-c3c(OCC4CC4)ccc4c3OCO4)ncnc12 [Example 5, trans-4-(5-Cyclopropylmethoxy-benzo[1,3]dioxol-4-yl)-5H-pyrrolo[3,2-d]pyrimidine-7-carboxylic acid {4-[(1-cyclopropyl-methanoyl)-amino]-cyclohexyl}-amide] | 0.123 | – |
| CCOC(=O)N[C@H]1CC[C@H](NC(=O)c2c[nH]c3c(-c4ccc(F)cc4OCC4CC4)ncnc23)CC1 [Example 80, trans-(4-{[4-(2-Cyclopropylmethoxy-4-fluoro-phenyl)-5H-pyrrolo[3,2-d]pyrimidine-7-carbonyl]-amino}-cyclohexyl)-carbamic acid ethyl ester] | 1.41 | – |
| COc1ccc(-c2ncnc3c(C(=O)N[C@H]4CC[C@H](NC(=O)C5CC5)CC4)c[nH]c23)c(OCC2CC2)c1 [Example 52, trans-4-(2-Cyclopropylmethoxy-4-methoxy-phenyl)-5H-pyrrolo[3,2-d]pyrimidine-7-carboxylic acid [4-(cyclopropanecarbonyl-amino)cyclohexyl]-amide] | 0.302 | – |
| CC(=O)N[C@H]1CC[C@H](NC(=O)c2c[nH]c3c(-c4ccc(F)cc4OCC4CC4)ncnc23)CC1 [Example 78, trans-4-(2-Cyclopropylmethoxy-4-fluoro-phenyl)-5H-pyrrolo[3,2-d]pyrimidine-7-carboxylic acid (4-acetylamino-cyclohexyl)-amide] | 2.29 | – |
| 4-({1-[4-(5-Cyclopropylmethoxy-benzo[1,3]dioxol-4-yl)-5H-pyrrolo[3,2-d]pyrimidin-7-yl]-methanoyl}-amino)-piperidine-1-carboxylic acid ethyl ester [Example 2] | – | 10.01 |
| CCC(=O)N1CCC[C@@H](NC(=O)c2c[nH]c3c(-c4cc(OC)c(F)cc4OCC4CC4)ncnc23)C1 [Example 101, 4-(2-Cyclopropylmethoxy-4-fluoro-5-methoxy-phenyl)-5H-pyrrolo[3,2-d]pyrimidine-7-carboxylic acid ((R)-1-propionyl-piperidin-3-yl)-amide] | 0.162 | – |
| CCC(=O)N1CCC(NC(=O)c2c[nH]c3c(-c4cc(OC)c(F)cc4OCC4CC4)ncnc23)CC1 [Example 97, 4-(2-Cyclopropylmethoxy-4-fluoro-5-methoxy-phenyl)-5H-pyrrolo[3,2-d]pyrimidine-7-carboxylic acid (1-propionyl-piperidin-4-yl)-amide] | 0.117 | – |
| COCC(=O)N1CCC(NC(=O)c2c[nH]c3c(-c4ccc(F)cc4OCC4CC4)ncnc23)CC1 [Example 83, 4-(2-Cyclopropylmethoxy-4-fluoro-phenyl)-5H-pyrrolo[3,2-d]pyrimidine-7-carboxylic acid [1-(2-methoxy-acetyl)piperidin-4-yl]-amide] | 5.13 | – |
